Experimental data published in US8404669B2, “Kinase modulating compounds and uses thereof for treatment of cancer” (University of Florida Research Foundation, Inc., priority 2007, dated 2013).
“Also recorded” adds a separate entry of the source. Ends that are not written are not given here.

Experiments:
FAK = target: T1, FAK (Homo sapiens, UniProt Q05397); test: FAK dephosphorylation in cells; type: cell-based
T1 construct: specific displacement of FAK from the focal adhesions of the tumor cells; endogenous in cells; host or cells: tumor cells; BT474 named for the focal adhesion staining
Experimental: (§1) Measurement of FAK-specific effect. The readout of a FAK-specific effect of selected in silico small molecules is specific displacement of FAK from the focal adhesions of the tumor cells. Tumor cells are doubly stained with FAK and paxillin using dual color techniques and extensive biochemical analyses of effects on FAK signaling are performed, essentially as previously published. See, Garces, C. A., et al., Vascular Endothelial Growth Factor Receptor-3 and Focal Adhesion Kinase Bind and Suppress Apoptosis in Breast Cancer Cells. Cancer Res % R 10.1158/0008-5472.CAN-05-1661, 2006. 66(3): p. 1446-1454; Xu, L.-h., et al., The focal adhesion kinase suppresses transformation-associated, anchorage-Independent apoptosis in human breast cancer cells. J. Biol. Chem., 2000. 275: p. 30597-30604; Kurenova, E., et al., Focal Adhesion Kinase Suppresses Apoptosis by Binding to the Death Domain of Receptor-Interacting Protein. Mol. Cell. Biol., 2004. 24(10): p. 4361-4371.

PARP = PARP down-regulation; type: cell-based
Source text: As such, these compounds are useful as therapeutic agents.

[1] = system: subcutaneous xenograft models of breast and pancreatic cancers; test: Subcutaneous xenograft models in nude mice, tumor growth; type: in vivo; details: for anticancer effect on tumor growth in vivo: single agent, mouse xenograft
Source text: (§2) Furthermore, these compounds sensitized the cancer cells to chemotherapy. […] See, FIGS. 3-14.

breast cancer cell lines = test: Peptide effect on proliferation (MTT), detachment and apoptosis (Hoechst, TUNEL) in breast cancer cell lines; type: cell-based, human; details: 24 hours
Experimental: (§3) FIG. 1.3. […] FAK and VEGFR-3 in BT474 cells were stained for FAK with a Texas Red-conjugated secondary antibody and VEGFR-3 with a Alexa Fluor 488-conjugated secondary antibody and then viewed with a Leica confocal microscope. After 24 hours of peptide-AV3 (black) treatment, staining was repeated, proliferation was measured by MTT assay, apoptosis was measured by Hoechst staining and TUNEL Assay. Control scrambled peptide-AV3S (white) was also used in all experiments. (FIG. 1.10, STEP 2A).

[2] = target: T2, FAK and VEGFR-3 interaction (Homo sapiens, UniProt Q05397); test: FAK and VEGFR-3 interaction and colocalization (immunofluorescence confocal microscopy, FRET); type: cell-based; details: for colocalization of FAK and VEGFR-3 in the cells: confocal microscopy
T2 construct: endogenous in cells; BT474 for the FAK/VEGFR-3 staining
Experimental: as §2, §3

[3] = target: T3, FAK in focal adhesions of BT474 cells (Homo sapiens, UniProt Q05397); test: Displacement of FAK from focal adhesions (dual colour staining, confocal microscopy); type: cell-based; details: 24 hours of peptide treatment
T3 construct: specific displacement of FAK from the focal adhesions of the tumor cells; endogenous in cells; host or cells: tumor cells; BT474 named for the focal adhesion staining
Experimental: as §1
as §3, with “Control scrambled peptide-AV3S (white) was also used in all experiments. (FIG. 1.10, STEP 2A).” left out

[4] = system: MCF7 cells overexpressing wt VEGFR3; test: Viability of stable clone overexpressing wt VEGFR3 in MCF7 cells; type: cell-based, human; details: 1 mM
cancer cells [5] = test: Dual treatment of cancer cells with C4 and chemotherapeutic drugs; type: cell-based, human
Source text: FIG. 1.9. Dual treatment of cancer cells with C4 compound and chemotherapeutic drugs. […] Concentrations correspond to IC50 cell-specific concentration for all used drugs.

cancer cells [6] = test: Cell cycle and apoptosis of cancer cells; type: cell-based, human
Experimental: Cell-based assays. Selected small molecules are evaluated in cell-based proliferation and apoptosis assays in model system of BT474 and MCF7 breast cancer cells and normal MCF10 cells. Other cells lines relevant for study are MiaPaCa-2 and PANC-1 (pancreatic cancer), A375 (melanoma), A549 (lung cancer), HT29 and COLO5 (colon cancer), SAOS (osteosarcoma), HCT116 p53(-/-) and HCT116 p53(+/+) (colon cancer) and […] (melanoma). The multiplex approach to analyze more than one parameter from the same culture well is used. The CellTiter-Blue Cell Viability Assay (Promega). CellTiter-Blue Reagent is added directly to each well (20μ reagent to each 100μ of medium in 96-well format), the plates are incubated at 37° C., and the fluorescent signal is measured (560Ex/590Em). This test can be combined with additional assays. The caspase activity is measured in the same wells by adding 120μ of the Apo-ONE Homogeneous […]-3/7 Assay Reagent (Promega). Cells are incubated for an additional hour at ambient temperature prior to recording fluorescence (485Ex/527Em);

[7] = system: cancer cells, including breast, colon, pancreatic, melanoma, lung, osteosarcoma; test: Cancer cell viability and proliferation assays (CellTiter 96, CellTiter-Blue, MTT); type: cell-based, human
Experimental: Cell-based assays. Selected small molecules are evaluated in cell-based proliferation and apoptosis assays in model system of BT474 and MCF7 breast cancer cells and normal MCF10 cells. Other cells lines relevant for study are MiaPaCa-2 and PANC-1 (pancreatic cancer), A375 (melanoma), A549 (lung cancer), HT29 and COLO5 (colon cancer), SAOS (osteosarcoma), HCT116 p53(−/−) and HCT116 p53(+/+) (colon cancer) and C8186 (melanoma). The multiplex approach to analyze more than one parameter from the same culture well is used.
CellTiter 96 Aqueous One Solution Cell Proliferation Assay (Promega). The assay is performed by adding a small amount of the One Solution Reagent directly to culture wells, incubating for 1-4 hours and then recording absorbance at 490 nm with a spectrophotometric plate reader. The quantity of formazan product as measured by the amount of 490 nm absorbance is directly proportional to the number of living cells in culture;
The CellTiter-Blue Cell Viability Assay (Promega). CellTiter-Blue Reagent is added directly to each well (20μ reagent to each 100μ of medium in 96-well format), the plates are incubated at 37° C., and the fluorescent signal is measured (560Ex/590Em). This test can be combined with additional assays. The caspase activity is measured in the same wells by adding 120μ of the Apo-ONE Homogeneous Caspace-3/7 Assay Reagent (Promega). […]

[8] = system: MCF7 control clone transfected with the vector pcDNA3; test: Viability of control MCF7 clone transfected with vector pcDNA3; type: cell-based, human; details: 1 mM
cancer cells [9] = test: Motility and invasiveness of cancer cells; type: cell-based
VEGFR-3 = target: T4, VEGFR-3 (Homo sapiens, UniProt P35916); test: VEGFR-3 dephosphorylation in cells; type: cell-based
T4 construct: expressed in transfected cells
T4 sequence (P35916 25-1363): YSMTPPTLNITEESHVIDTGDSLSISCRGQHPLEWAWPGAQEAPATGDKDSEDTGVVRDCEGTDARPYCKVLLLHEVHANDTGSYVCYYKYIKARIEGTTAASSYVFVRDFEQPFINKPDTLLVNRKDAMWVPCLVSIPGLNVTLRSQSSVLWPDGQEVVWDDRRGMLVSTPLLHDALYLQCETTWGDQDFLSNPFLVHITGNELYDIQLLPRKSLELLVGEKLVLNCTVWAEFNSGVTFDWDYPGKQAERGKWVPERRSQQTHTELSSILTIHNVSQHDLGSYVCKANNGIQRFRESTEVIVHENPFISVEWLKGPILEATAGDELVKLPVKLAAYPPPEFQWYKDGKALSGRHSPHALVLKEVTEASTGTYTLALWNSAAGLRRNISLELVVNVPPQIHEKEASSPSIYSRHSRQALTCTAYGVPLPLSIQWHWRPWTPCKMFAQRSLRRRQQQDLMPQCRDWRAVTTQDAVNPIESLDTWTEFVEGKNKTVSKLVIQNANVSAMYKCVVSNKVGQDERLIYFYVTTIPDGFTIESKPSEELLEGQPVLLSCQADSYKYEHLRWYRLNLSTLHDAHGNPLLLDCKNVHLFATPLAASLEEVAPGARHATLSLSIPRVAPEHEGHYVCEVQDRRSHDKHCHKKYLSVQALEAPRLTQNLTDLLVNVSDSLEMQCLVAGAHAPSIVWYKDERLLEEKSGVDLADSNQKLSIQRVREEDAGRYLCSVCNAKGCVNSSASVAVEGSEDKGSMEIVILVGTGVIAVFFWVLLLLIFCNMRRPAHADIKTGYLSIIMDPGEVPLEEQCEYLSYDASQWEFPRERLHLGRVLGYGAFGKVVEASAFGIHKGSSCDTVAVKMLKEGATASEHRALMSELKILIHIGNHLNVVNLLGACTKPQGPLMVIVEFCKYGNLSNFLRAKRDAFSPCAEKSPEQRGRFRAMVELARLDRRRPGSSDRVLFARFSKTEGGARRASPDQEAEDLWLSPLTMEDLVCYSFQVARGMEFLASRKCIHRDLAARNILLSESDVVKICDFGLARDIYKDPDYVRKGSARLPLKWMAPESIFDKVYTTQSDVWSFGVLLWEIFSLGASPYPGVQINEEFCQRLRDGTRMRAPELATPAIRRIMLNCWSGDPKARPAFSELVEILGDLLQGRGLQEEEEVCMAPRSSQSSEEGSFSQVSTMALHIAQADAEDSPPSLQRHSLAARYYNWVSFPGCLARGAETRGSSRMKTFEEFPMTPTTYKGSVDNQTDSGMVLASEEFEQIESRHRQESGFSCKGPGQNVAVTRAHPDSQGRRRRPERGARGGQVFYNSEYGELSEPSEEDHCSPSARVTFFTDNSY

T2 sequence (Q05397 2-1052 limits assumed): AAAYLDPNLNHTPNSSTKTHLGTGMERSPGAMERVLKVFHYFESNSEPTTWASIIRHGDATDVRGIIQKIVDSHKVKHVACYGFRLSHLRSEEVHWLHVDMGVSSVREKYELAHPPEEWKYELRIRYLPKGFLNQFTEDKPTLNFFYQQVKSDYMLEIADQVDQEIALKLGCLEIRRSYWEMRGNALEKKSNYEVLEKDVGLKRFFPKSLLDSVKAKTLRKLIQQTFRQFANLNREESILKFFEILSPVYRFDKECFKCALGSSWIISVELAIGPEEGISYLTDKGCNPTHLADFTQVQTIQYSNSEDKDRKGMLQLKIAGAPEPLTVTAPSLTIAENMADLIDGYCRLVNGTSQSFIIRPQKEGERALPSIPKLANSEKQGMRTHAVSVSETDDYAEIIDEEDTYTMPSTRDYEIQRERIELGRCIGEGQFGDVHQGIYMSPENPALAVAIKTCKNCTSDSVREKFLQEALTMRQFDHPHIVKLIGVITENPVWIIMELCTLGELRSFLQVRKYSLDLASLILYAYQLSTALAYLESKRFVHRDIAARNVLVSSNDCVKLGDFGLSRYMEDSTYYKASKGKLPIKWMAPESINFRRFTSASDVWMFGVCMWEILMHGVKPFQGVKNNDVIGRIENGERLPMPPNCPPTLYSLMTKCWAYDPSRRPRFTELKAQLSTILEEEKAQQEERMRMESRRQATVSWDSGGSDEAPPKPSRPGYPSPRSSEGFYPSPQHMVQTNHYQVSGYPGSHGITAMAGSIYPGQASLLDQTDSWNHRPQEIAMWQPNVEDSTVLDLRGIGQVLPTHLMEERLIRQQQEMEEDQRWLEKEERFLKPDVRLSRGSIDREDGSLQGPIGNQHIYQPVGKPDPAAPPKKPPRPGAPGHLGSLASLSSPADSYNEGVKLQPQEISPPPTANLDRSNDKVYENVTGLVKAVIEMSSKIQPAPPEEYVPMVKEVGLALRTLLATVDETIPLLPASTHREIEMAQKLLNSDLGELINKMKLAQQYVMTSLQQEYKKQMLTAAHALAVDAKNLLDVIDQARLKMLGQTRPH
T1 sequence (Q05397 whole entry): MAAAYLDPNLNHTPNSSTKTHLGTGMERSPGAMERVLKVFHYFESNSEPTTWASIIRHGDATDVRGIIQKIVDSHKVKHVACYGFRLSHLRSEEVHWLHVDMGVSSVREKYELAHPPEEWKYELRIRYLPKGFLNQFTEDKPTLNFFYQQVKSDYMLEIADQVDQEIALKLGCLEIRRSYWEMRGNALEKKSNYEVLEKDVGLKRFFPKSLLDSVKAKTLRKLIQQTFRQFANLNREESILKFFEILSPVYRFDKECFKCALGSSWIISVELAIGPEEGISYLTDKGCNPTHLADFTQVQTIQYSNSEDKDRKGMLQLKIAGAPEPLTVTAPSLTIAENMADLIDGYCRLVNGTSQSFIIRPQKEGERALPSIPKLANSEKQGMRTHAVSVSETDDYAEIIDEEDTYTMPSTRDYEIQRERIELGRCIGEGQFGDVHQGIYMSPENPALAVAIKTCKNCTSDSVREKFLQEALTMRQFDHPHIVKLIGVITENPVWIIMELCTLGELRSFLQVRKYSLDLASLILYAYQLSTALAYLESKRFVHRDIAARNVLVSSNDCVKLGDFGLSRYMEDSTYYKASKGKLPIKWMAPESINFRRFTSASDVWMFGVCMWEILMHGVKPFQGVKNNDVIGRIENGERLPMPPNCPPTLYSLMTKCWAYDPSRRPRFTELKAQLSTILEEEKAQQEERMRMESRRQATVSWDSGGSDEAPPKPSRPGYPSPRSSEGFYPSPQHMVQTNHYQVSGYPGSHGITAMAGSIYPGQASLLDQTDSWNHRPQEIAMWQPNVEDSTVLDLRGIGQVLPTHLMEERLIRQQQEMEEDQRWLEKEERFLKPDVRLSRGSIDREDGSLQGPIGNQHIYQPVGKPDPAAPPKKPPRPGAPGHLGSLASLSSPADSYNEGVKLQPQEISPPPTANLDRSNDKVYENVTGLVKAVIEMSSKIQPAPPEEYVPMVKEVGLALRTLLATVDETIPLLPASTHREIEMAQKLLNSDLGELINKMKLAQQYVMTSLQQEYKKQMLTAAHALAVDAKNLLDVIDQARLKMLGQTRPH
T3 sequence (Q05397 whole entry): as above

COC(=O)Nc1nc2ccc(C(=O)C3CC3)cc2[nH]1 [Compound D4, methyl N-[5-(cyclopropanecarbonyl)-3H-benzoimidazol-2-yl]carbamate]
phosphorylation of Y397 (FAK): cause de-phosphorylation of Y397
PARP level (PARP): causes PARP down-regulation

CN(C)CCOC(c1ccccc1)c1ccccc1 [Benadryl, reference compound]
anticancer effect on tumor growth in vivo [1]: no any anticancer properties

COc1ccc(NC(=O)Nc2cc(Cl)ccc2OC)c(Cl)c1 [Compound D6, 1-(2-chloro-4-methoxy-phenyl)-3-(5-chloro-2-methoxy-phenyl) urea]
phosphorylation of Y397 (FAK): cause de-phosphorylation of Y397

WHWRPWTPCKMF (also: TAT penetration sequence coupled for cell tests) [peptide-AV3]
cell detachment in breast cancer cell lines (breast cancer cell lines): caused cell detachment
cell detachment in breast cancer cell lines (breast cancer cell lines; listed as Peptide-AV3): increased detachment
apoptosis in breast cancer cell lines (breast cancer cell lines; Hoechst staining and TUNEL): apoptosis
proliferation of breast cancer cell lines (breast cancer cell lines; MTT): decreased proliferation
colocalization of FAK and VEGFR-3 in the cells [2]: affected co-localization of FAK and VEGFR-3; also recorded: affected colocalization of FAK and VEGFR-3
displacement of FAK from the focal adhesions [3]: caused specific displacement of FAK from the focal adhesions
displacement of FAK from the focal adhesions ([3]; listed as Peptide-AV3): causes specific displacement of FAK from the focal adhesions

CN(C)CCN(Cc1ccc(Cl)cc1)c1ccccn1 [Compound C4, N′-[(4-chlorophenyl)methyl]-N,N-dimethyl-N′-pyridin-2-yl-ethane-1,2-diamine]
FAK phosphorylation (FAK): specifically dephosphorylates FAK and VEGFR-3
viability of VEGFR3 clone [4]: reproducible decrease in viability
effect of dual treatment with doxorubicin (cancer cells [5]; C4 combined with doxorubicin, IC50 cell-specific concentrations): At least additive effect is very pronounced
cell viability in combination with chemotherapy (sensitization) (cancer cells [5]; in combination with Doxorubicin and Gemcitabine, in vitro): improved effect on decrease of cells viability; also recorded: sensitizes pancreatic cancer and breast cancer cells to chemotherapy treatment in vitro
FAK and VEGFR-3 interaction [2]: disrupts their interaction
colocalization of FAK and VEGFR-3 in the cells [2]: decrease in their colocalization in the cells
cell cycle (cancer cells [6]): blockage at G1/S cell cycle transition
apoptosis of cancer cells (cancer cells [6]; in vitro): apoptosis of cancer cells; also recorded: causes apoptosis in pancreatic and breast cancer cells in vitro
cell proliferation [7]: delay in cell proliferation
viability of cancer cells ([7]; in vitro): decreases viability of many different types of cancer cells
viability of control clone [8]: resistant to this concentration of the drug
motility and invasiveness of cancer cells (cancer cells [9]): reduces motility and invasiveness of cancer cells
reduction of tumor growth in comparison with nontreated tumors ([1]; 60 mg/kg, daily intraperitoneal injections, nude mice): up to 75%
tumor growth after treatment withdrawal ([1]; C4 combined with Gemcitabine, pancreatic tumor): prolonged cytostatic effect on pancreatic tumor growth after treatment withdrawal
anticancer effect in combination with Gemcitabine ([1]; C4 combined with Gemcitabine, versus each drug separately): much stronger anticancer effect than each of the drugs separately
tumor growth compared with doxorubicin ([1]; breast cancer): decreases tumor growth better than doxorubicin
anticancer effect on tumor growth in vivo [1]: strong anticancer effect; also recorded: reduces tumor growth in vivo in mouse model of breast cancer and pancreatic cancer
VEGFR-3 phosphorylation (VEGFR-3): specifically dephosphorylates FAK and VEGFR-3
dephosphorylation of VEGFR3 (VEGFR-3; treatment for 24 h with 10 mM compound): caused dephosphorylation of VEGFR3

Cc1cc(C)nc(Nc2nc3cc([N+](=O)[O-])ccc3[nH]2)n1 [Compound D5, (4,6-Dimethyl-pyrimidin-2-yl)-(5-nitro-1H-benzoimidazol-2-yl)-amine]
phosphorylation of Y397 (FAK): cause de-phosphorylation of Y397
